Data taken from the NIST ThermoML archive (doi:10.1021/acs.jced.8b00298).
± gives the expanded uncertainty stated by the source.

Details: Liquid
[1] = Visual observation in an unstirred cell

Compound | Critical pressure (Capillary flow) [kPa] | Critical temperature (Capillary flow) [K] | Critical molar volume (Visual) [m3/mol] | Critical pressure (Visual) [kPa] | Critical temperature [1] [K]
c1cc[nH]c1 [pyrrole] | 6300 ± 170 | 633.3 ± 3 |  |  | 
CCCCCCOCCCCCC [dihexyl ether] | 1763 ± 110 | 663 ± 3 |  |  | 
COCC(C)=O [1-methoxy-2-propanone] | 4210 ± 90 | 584 ± 2 |  |  | 
CCC(=O)OC(C)COC (configuration not stated) [1-methoxypropan-2-yl propionate] | 2600 ± 80 | 611.7 ± 2.4 |  |  | 
CC(C)C1CCCCC1 [(1-methylethyl)cyclohexane] |  |  | 0.00048 ± 2e-05 | 2940 ± 30 | 635.3 ± 0.2
CCCCC1CCCCC1 [butylcyclohexane] |  |  | 0.00056 ± 2e-05 | 2510 ± 30 | 649.3 ± 0.2
Cn1cccc1 [N-methylpyrrole] | 4210 ± 140 | 587.4 ± 3 |  |  | 
CC(=O)OCCOC(C)=O [ethylene diacetate] | 3080 ± 100 | 654.9 ± 3 |  |  | 
C[C@@H]1CCC[C@H](C)C1 [cis-1,3-dimethylcyclohexane] |  |  | 0.00043 ± 2e-05 | 3040 ± 30 | 586.1 ± 0.2
CN1CCCC1 [N-methylpyrrolidine] |  |  | 0.0003 ± 2e-05 | 4000 ± 40 | 548.62 ± 0.24
CC(C)(C)C1CCCCC1 [1,1-dimethylethylcyclohexane] |  |  | 0.0005 ± 2e-05 | 2770 ± 30 | 646.9 ± 0.2
C1CCSC1 [tetrahydrothiophene] | 5430 ± 300 | 634.6 ± 6 |  |  | 
Sc1ccccc1 [benzenethiol] | 4650 ± 180 | 689.2 ± 4 |  |  | 
c1ccc(Cc2ccccc2)cc1 [diphenylmethane] | 2920 ± 60 | 770 ± 2 |  |  | 
C=C(C)C(=O)OCCCC [butyl 2-methyl-2-propenoate] | 2520 ± 120 | 615.8 ± 4 |  |  | 
OCC1CCC(CO)CC1 (configuration not stated) [1,4-bis(hydroxymethyl)cyclohexane] | 4000 ± 240 | 800.3 ± 4 |  |  | 
CCCCc1ccccc1 [butylbenzene] |  |  | 0.0005 ± 2e-05 | 2890 ± 30 | 660.3 ± 0.2
COC(C)OC [3-methyl-2,4-dioxapentane] | 4300 ± 260 | 511.6 ± 5.6 |  |  | 
CN1CCCCC1 [N-methylpiperidine] | 3660 ± 160 | 581.5 ± 3.6 |  |  | 
OCCN1CCNCC1 [N-(2-hydroxyethyl)piperazine] | 3980 ± 480 | 760 ± 12 |  |  | 
CC(C)C#N [2-methylpropanenitrile] | 3672 ± 150 | 560.8 ± 2 |  |  | 
CC(C)(C)c1ccccc1 [(1,1-dimethylethyl)benzene] |  |  | 0.00048 ± 2e-05 | 2900 ± 30 | 646.9 ± 0.2

Compound | Critical pressure (Capillary flow) [kPa] | Critical temperature (Capillary flow) [K] | Critical molar volume (Visual) [m3/mol] | Critical pressure (Visual) [kPa] | Critical temperature [1] [K]
CC(C)C(O)C(C)(C)CO (configuration not stated) [2,2,4-trimethyl-1,3-pentanediol] | 3110 ± 140 | 708.2 ± 3.2 |  |  | 
CN(C)C=O [dimethylformamide] | 4720 ± 140 | 650.6 ± 3 |  |  | 
C=CC(=O)OCC(CC)CCCC (configuration not stated) [2-ethylhexyl 2-propenoate] | 2080 ± 140 | 672.5 ± 6 |  |  | 
OCCOc1ccccc1 [2-phenoxyethanol] | 3860 ± 120 | 749.4 ± 2 |  |  | 
CC(=O)N(C)C [N,N-dimethylethanamide] | 4260 ± 120 | 660.2 ± 2.6 |  |  | 
CCOC(=O)OCC [diethyl carbonate] | 3080 ± 120 | 578.2 ± 3 |  |  | 
CC(C)CCCC(C)CCCC(C)CCCCC(C)CCCC(C)CCCC(C)C (configuration not stated) [2,6,10,15,19,23-hexamethyltetracosane] | 657 ± 67 | 805 ± 20 |  |  | 
Cc1ccsc1 [3-methylthiophene] | 4620 ± 140 | 607.3 ± 3 |  |  | 
C=CC(=O)OCC [ethyl propenoate] | 3710 ± 100 | 555.2 ± 2 |  |  | 
C=C(C)OC(C)=O [1-methylvinyl ethanoate] | 3630 | 549.8 ± 2 |  |  | 
CCN(CC)CCO [(diethylamino)ethanol] | 3247 ± 130 | 625.9 ± 4 |  |  | 
C=CC(=O)OC [methyl propenoate] | 3990 ± 140 | 532.7 ± 2.6 |  |  | 
CNC=O [N-methylformamide] | 6080 ± 260 | 715.6 ± 4 |  |  | 
C=C(C)CC(C)(C)C [2,4,4-trimethyl-1-pentene] | 2730 ± 120 | 550.7 ± 4 |  |  | 
COCCC#N [3-methoxypropanenitrile] | 4040 ± 120 | 650.9 ± 2.4 |  |  | 
SC1CCCCC1 [cyclohexanethiol] | 3970 ± 160 | 669.6 ± 4 |  |  | 
COCCOCCOCCOCCOC [2,5,8,11,14-pentaoxapentadecane] | 1980 ± 120 | 726.6 ± 4 |  |  | 
COC(C)CO (configuration not stated) [2-methoxy-1-propanol] | 4310 ± 140 | 596.6 ± 3 |  |  | 
C[C@H]1CC[C@H](C)CC1 [trans-1,4-dimethylcyclohexane] |  |  | 0.00042 ± 2e-05 | 3060 ± 30 | 585.84 ± 0.24
COC(=O)OC [dimethyl carbonate] | 4450 ± 130 | 556.3 ± 3 |  |  | 
CNC(C)=O [N-methylacetamide] | 5090 ± 200 | 707.4 ± 2 |  |  | 
COCCOCCOC [2,5,8-trioxanonane] | 2830 ± 120 | 619.7 ± 4 |  |  | 

Compound | Critical pressure (Capillary flow) [kPa] | Critical temperature (Capillary flow) [K] | Critical molar volume (Visual) [m3/mol] | Critical pressure (Visual) [kPa] | Critical temperature [1] [K]
O=C1CCCN1 [2-pyrrolidinone] | 5590 ± 220 | 789.1 ± 3.6 |  |  | 
C=C(C)C(=O)OCC [ethyl 2-methylpropenoate] | 3170 ± 120 | 572 ± 3 |  |  | 
CCCCCCCCOCCCCCCCC [dioctyl ether] | 1446 ± 85 | 727 ± 4 |  |  | 
C[C@@H]1CCCC[C@H]1C (relative stereo) [trans-1,2-dimethylcyclohexane] |  |  | 0.00044 ± 2e-05 | 3080 ± 30 | 596.3 ± 0.3
C[C@@H]1CCCC[C@@H]1C [cis-1,2-dimethylcyclohexane] |  |  | 0.00041 ± 2e-05 | 3350 ± 30 | 607.29 ± 0.24
CC(C)C=O [2-methylpropanal] | 4210 ± 140 | 519 ± 3 |  |  | 
Cc1ccc(C=O)cc1 [4-methylbenzaldehyde] | 3920 ± 90 | 715.8 ± 4 |  |  | 
CCC(C)c1ccccc1 (configuration not stated) [(1-methylpropyl)benzene] |  |  | 0.00048 ± 2e-05 | 3030 ± 30 | 653 ± 0.2
COC(=O)c1ccc(C(=O)OC)cc1 [dimethyl 1,4-benzenedicarboxylate] | 2760 ± 400 | 779 ± 20 |  |  | 
S=C=S [carbon disulfide] |  |  | 0.000176 ± 9e-06 | 7330 ± 60 | 552.5 ± 0.2
CCOCCO [2-ethoxyethan-1-ol] | 4200 ± 110 | 598.9 ± 4 |  |  | 
COC(=O)CC(C)=O [methyl 3-oxobutanoate] | 3830 ± 140 | 652.8 ± 4 |  |  | 
COCCOCCOCCOC [2,5,8,11-tetraoxadodecane] | 2310 ± 60 | 681.2 ± 2.4 |  |  | 
CCC1CCCCC1 [ethylcyclohexane] |  |  | 0.00043 ± 2e-05 | 3110 ± 30 | 605.9 ± 0.2
Cc1cccs1 [2-methylthiophene] | 4620 ± 140 | 602 ± 2 |  |  | 
O=C1OCCO1 [ethylene carbonate] | 5280 ± 800 | 786 ± 10 |  |  | 
COCCOC [1,2-dimethoxyethane] |  |  | 0.00031 ± 2e-05 | 3830 ± 40 | 535.32 ± 0.24
COCOC [dimethoxymethane] | 4550 ± 280 | 488.9 ± 3.2 |  |  | 
C1CCNCC1 [piperidine] | 4560 ± 140 | 594.4 ± 3 |  |  | 
C=C(C)C(=O)OC [methyl methacrylate] | 3750 ± 100 | 557.9 ± 1.6 |  |  | 
